Reference: patent publication US6737383B1, “Herbicidal oxadiazolidines” (priority 1999, dated 2004)

Legend:
[1] = tested on: wild oat; assay: Test B pre/postemergence wild oat; format: in vivo, Avena fatua; details: Preemergence
Procedure, shortened: (§1)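 Response is a visual 0-to-10 score relative to untreated plants, where 0 means no effect and 10 means complete control, taken twelve to sixteen days after application. Treatments went onto soil at planting and onto foliage of 1- to 4-leaf plants, using a surfactant-containing non-phytotoxic solvent.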

[2] = tested on: blackgrass; assay: Test B pre/postemergence blackgrass; format: in vivo, Alopecurus myosuroides; details: Preemergence
Procedure, shortened: as §1

[3] = tested on: sugar beet; assay: Test B pre/postemergence sugar beet; format: in vivo, Beta vulgaris; details: Preemergence
Procedure, shortened: as §1

[4] = tested on: crabgrass; assay: Test B pre/postemergence crabgrass; format: in vivo, Digitaria sanguinalis; details: Preemergence
Procedure, shortened: as §1

[5] = tested on: corn; assay: Test B pre/postemergence corn; format: in vivo, Zea mays; details: Preemergence
Procedure, shortened: as §1

[6] = tested on: wheat; assay: Test B pre/postemergence wheat; format: in vivo, Triticum aestivum; details: Preemergence
Procedure, shortened: as §1

[7] = tested on: soybean; assay: Test B pre/postemergence soybean; format: in vivo, Glycine max; details: Preemergence
Procedure, shortened: as §1

[8] = tested on: rape; assay: Test B pre/postemergence rape; format: in vivo, Brassica napus; details: Preemergence
Procedure, shortened: as §1

[9] = tested on: giant foxtail; assay: Test B pre/postemergence giant foxtail; format: in vivo, Setaria faberii; details: Preemergence
Procedure, shortened: as §1

[10] = tested on: smallflower flatsedge; assay: Test B flood test smallflower flatsedge; format: in vivo, Cyperus difformis
Procedure, shortened: (§2)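 Plants were grown to the 2-leaf stage before treatment with test chemical, then held in a greenhouse for twelve to sixteen days. Injury was visually rated against untreated controls on a 0–10 scale, where 0 is no effect and 10 is complete control.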

[11] = tested on: duck salad; assay: Test B flood test duck salad; format: in vivo, Heteranthera limosa
Procedure, shortened: as §2

[12] = tested on: bamyardgrass; assay: Test B flood test barnyardgrass; format: in vivo, Echinochloa crus-galli
Procedure, shortened: as §2

[13] = tested on: surinam grass; assay: Test B pre/postemergence surinam grass; format: in vivo, Brachiaria decumbens; details: Preemergence
Procedure, shortened: as §1

[14] = tested on: cocklebur; assay: Test B pre/postemergence cocklebur; format: in vivo, Xanthium strumarium; details: Preemergence
Procedure, shortened: as §1

[15] = tested on: velvetleaf; assay: Test B pre/postemergence velvetleaf; format: in vivo, Abutilon theophrasti; details: Preemergence
Procedure, shortened: as §1

[16] = tested on: morningglory; assay: Test B pre/postemergence morningglory; format: in vivo, Ipomoea hederacea; details: Preemergence
Procedure, shortened: as §1

[17] = tested on: bedstraw; assay: Test B pre/postemergence bedstraw; format: in vivo, Galium aparine; details: Preemergence
Procedure, shortened: as §1

[18] = tested on: purple nutsedge; assay: Test B pre/postemergence purple nutsedge; format: in vivo, Cyperus rotundus; details: Preemergence
Procedure, shortened: as §1

[19] = tested on: pigweed; assay: Test B pre/postemergence pigweed; format: in vivo, Amaranthus retroflexus; details: Preemergence
Procedure, shortened: as §1

[20] = tested on: rice; assay: Test B flood test rice; format: in vivo, Oryza sativa
Procedure, shortened: as §2

[21] = Rate 62 g/ha, scale of 0 to 10 where 0 is no effect and 10 is complete control
[22] = Rate 125 g/ha, scale of 0 to 10 where 0 is no effect and 10 is complete control
[23] = Rate 250 g/ha, scale 0 (no effect) to 10 (complete control)
[24] = Rate 500 g/ha, scale 0 to 10 (0 no effect, 10 complete control)
[25] = Pre-emergence, Rate 62 g/ha, scale 0 to 10, 0 is no effect, 10 is complete control
[26] = Rate 125 g/ha, Pre-emergence section (flood test species), scale 0 to 10, 0 no effect, 10 complete control
[27] = Rate 250 g/ha, Pre-emergence (flood test species), scale 0 to 10, 0 is no effect, 10 is complete control
[28] = Rate 500 g/ha, Pre-emergence section of Table B, 0 to 10 scale (0 no effect, 10 complete control)

Structure (SMILES): CC(C)N(C(=O)n1oc(=O)n(C(C)C2=NOCC2)c1=O)c1ccc(F)cc1 (racemic) [Compound 721]
- Wild oats plant response rating [1, 21]: 6
- Plant response rating, Wild oats [1, 22]: 8
- Wild oats plant response rating [1, 23]: 8
- Wild oats plant response rating [1, 24]: 10
- Blackgrass plant response rating [2, 21]: 9
- Plant response rating, Blackgrass [2, 22]: 10
- Blackgrass plant response rating [2, 23]: 10
- Blackgrass plant response rating [2, 24]: 10
- Sugarbeets plant response rating [3, 21]: 3
- Plant response rating, Sugarbeets [3, 22]: 7
- Sugarbeets plant response rating [3, 23]: 7
- Sugarbeets plant response rating [3, 24]: 8
- Crabgrass plant response rating [4, 21]: 9
- Plant response rating, Crabgrass [4, 22]: 9
- Crabgrass plant response rating [4, 23]: 9
- Crabgrass plant response rating [4, 24]: 9
- Corn plant response rating [5, 21]: 0
- Plant response rating, Corn [5, 22]: 3
- Corn plant response rating [5, 23]: 5
- Corn plant response rating [5, 24]: 8
- Wheat plant response rating [6, 21]: 0
- Plant response rating, Wheat [6, 22]: 3
- Wheat plant response rating [6, 23]: 3
- Wheat plant response rating [6, 24]: 8
- Soybean plant response rating [7, 21]: 0
- Plant response rating, Soybean [7, 22]: 0
- Soybean plant response rating [7, 23]: 0
- Soybean plant response rating [7, 24]: 7
- Rape plant response rating [8, 21]: 1
- Plant response rating, Rape [8, 22]: 9
- Rape plant response rating [8, 23]: 9
- Rape plant response rating [8, 24]: 10
- Giant foxtail plant response rating [9, 21]: 9
- Plant response rating, Giant foxtail [9, 22]: 10
- Giant foxtail plant response rating [9, 23]: 10
- Giant foxtail plant response rating [9, 24]: 10
- S. Flatsedge plant response rating [10, 25]: 0
- S. Flatsedge plant response rating [10, 26]: 0
- S. Flatsedge plant response rating [10, 27]: 0
- S. Flatsedge plant response rating [10, 28]: 0
- Ducksalad plant response rating [11, 25]: 0
- Ducksalad plant response rating [11, 26]: 0
- Ducksalad plant response rating [11, 27]: 0
- Ducksalad plant response rating [11, 28]: 0
- Barnyardgrass plant response rating [12, 25]: 0
- Barnyardgrass plant response rating [12, 26]: 0
- Barnyardgrass plant response rating [12, 27]: 0
- Barnyardgrass plant response rating [12, 28]: 0
- B. signalgrass plant response rating [13, 21]: 7
- Plant response rating, B. signalgrass [13, 22]: 8
- B. signalgrass plant response rating [13, 23]: 8
- B. signalgrass plant response rating [13, 24]: 10
- Cocklebur plant response rating [14, 21]: 0
- Plant response rating, Cocklebur [14, 22]: 0
- Cocklebur plant response rating [14, 23]: 2
- Cocklebur plant response rating [14, 24]: 2
- Velvetleaf plant response rating [15, 21]: 0
- Plant response rating, Velvetleaf [15, 22]: 5
- Velvetleaf plant response rating [15, 23]: 8
- Velvetleaf plant response rating [15, 24]: 10
- Morningglory plant response rating [16, 21]: 1
- Plant response rating, Morningglory [16, 22]: 2
- Morningglory plant response rating [16, 23]: 2
- Morningglory plant response rating [16, 24]: 5
- Bedstraw plant response rating [17, 21]: 3
- Plant response rating, Bedstraw [17, 22]: 10
- Bedstraw plant response rating [17, 23]: 10
- Bedstraw plant response rating [17, 24]: 10
- Nutsedge plant response rating [18, 21]: 0
- Plant response rating, Nutsedge [18, 22]: 0
- Nutsedge plant response rating [18, 23]: 0
- Nutsedge plant response rating [18, 24]: 3
- Redroot pigweed plant response rating [19, 21]: 9
- Plant response rating, Redroot pigweed [19, 22]: 10
- Redroot pigweed plant response rating [19, 23]: 10
- Redroot pigweed plant response rating [19, 24]: 10
- Rice plant response rating [20, 25]: 0
- Rice plant response rating [20, 26]: 0
- Rice plant response rating [20, 27]: 0
- Rice plant response rating [20, 28]: 0
